Non-standard residues stand in square brackets, D forms with d. Residues, ends and D or L forms follow the SMILES beside them. Nle = CCCC[C@H](N)C(=O)O
How the values were obtained:
C. elegans CL2355 = test: Chemotaxis assay in transgenic C. elegans; assay type: in vivo, Caenorhabditis elegans; conditions: fed 0.5, 5 and 50 μM; untreated CL2355 0.18 ± 0.01, CL2122 0.29 ± 0.01
5xFAD mice = test: PET/CT imaging in 5xFAD mice; assay type: in vivo, mouse; conditions: 6-mo-old 5xFAD mice, 1 h post injection
[1] = pH 7.4; ref [67]; cited from earlier work

CCCC[C@@H]1NC(=O)[C@@H](CC(C)C)NC(=O)[C@H](CCCCN)NC(=O)[C@@H](CO)NC(=O)[C@H](Cc2c[nH]cn2)NC(=O)[C@@H](C)NC1=O [[w4a]-1, c-(D-Leu-Nle-D-Ala-His-D-Ser-Lys)] (cyclo(H[dS]K[dL][Nle][dA]))
Chemotaxis index (CI) of CL2355 mutants (C. elegans CL2355): significantly less protective than peptide 1

[11CH3]Nc1ccc(-c2nc3ccc(O)cc3s2)cc1 [^11C-PIB, ^11C-Pittsburgh compound B]
Hippocampal uptake (PET) (5xFAD mice): 1.038 ± 0.028 %ID/g

O=C(O)CN1CCN(CC(=O)O)CCN(CC(=O)O)CC1 [NOTA, 2,2′,2”-(1,4,7-triazacyclononane-1,4,7-triyl)triacetic acid]
Thermodynamic stability constant of Cu^2+ complex (log KML) [1]: 23.33

H-[dL][Nle][dW]H[dS]K-OH [Lin-1]
Chemotaxis index (CI) of CL2355 mutants (C. elegans CL2355): significantly less protective than peptide 1

Reference: PMC9894226 (Proceedings of the National Academy of Sciences of the …, 2022)
